Source: patent US20150087722A1, “TREATMENT FOR BREAST TUMOR CELL METASTASIS” (China Medical University, priority 2012, published 2015)

Assays:
[1] = test system: breast tumor cells MDA-MB-453; experiment: MTT cell viability assay; assay type: cell-based, human; conditions: for cell viability: FIG. 24
Method: The breast tumor cells (MDA-MB-231, MDA-MB-435, MDA-MB-453, MDA-MB-468 and MCF-7) were commercially obtained from the bioresource collection and research center (BCRC), and were cultured in a 10% FBS-DMEM culture medium (i.e., a DMEM culture medium including 10% fetal bovine serum (FBS)). The human breast cell MCF-10A was cultured in a 5% FBS-DMEM culture medium (including F12, insulin, hydrocortisol and epidermal growth factor). An environment of 5% CO2 was kept in the incubator at a constant temperature of 37° C. When a certain number of cells were generated in culture, the culture medium was removed after being centrifuged for 10 min at a rate of 900 rpm. The culture medium was replaced in 24 h before the experiment, and the number of cells was counted by a hemocytometer.
The cell viability was determined by a method of […] (MTT assay). The test method for assaying cell viability refers to steps provided by Parada-Turska et al.
The breast tumor cells MDA-MB-231 were inoculated in a 24-well plate (2.5×10^5 cells/well), and the next day after cells were adhered to the wall of the plate, the cells were washed with PBS. 1% FBS-DMEM culture medium was then added so as to synchronize cells. The next day compound II having different concentrations were added into the wells, and the cells were subsequently cultured in an atmosphere of 5% CO2 at 37° C. for 24 h. The cells were washed with PBS once, and 400 μl MTT agent was added in each well so as to react for 4 h. Then 400 μl 10% SDS was added in each well so as to react for 12 h. 200 μl supernatant was taken from the well and then added into a 96-well microplate, so as to measure the absorbance at 570 nm.
In the MTT assay, the MDA-MB-453 cells were cultured in a culture medium including 5% fetal bovine serum-DMEM F12/insulin/hydrocortisol/epidermal growth factor. Then the cells were cultured at an atmosphere of 5% CO2 in an incubator at a constant temperature of 37° C. When a certain number of cells were generated in culture, the culture medium was removed after being centrifuged at 900 rmp for 10 min. The culture medium was replaced in 24 h before the experiment, and the number of cells was counted by a hemocytometer.

[2] = test system: Liver Tumor Cell (Huh-7 cell strain); experiment: MTT cell viability assay; assay type: cell-based; conditions: Homo sapiens
[3] = test system: Skin Tumor Cell (A2058 cell strain); experiment: MTT cell viability assay; assay type: cell-based; conditions: Homo sapiens
[4] = test system: Rat Skin Tumor Cell (B16F10 cell strain); experiment: MTT cell viability assay; assay type: cell-based; conditions: Mus musculus, B16-F10
[5] = test system: breast tumor cells MDA-MB-231; experiment: colony formation assay; assay type: cell-based, human; conditions: MDA-MB-231, 24 h treatment, FIG. 1B
Text: In order to know the effect of the compound II on the colony formation of the breast tumor cells MDA-MB-231, the cells were observed through a colony formation assay.

[6] = test system: ROS content in breast tumor cells MDA-MB-231; experiment: intracellular reactive oxygen species method; assay type: cell-based, human
Method: In FIG. 12, the reactive oxygen species method was used to detect the effect of increased treatment doses of the compound II on the ROS content in breast tumor cells, and a photograph was taken at a 200× field under the fluorescence microscope. In the intracellular reactive oxygen species method, the cells were planted in a 24-well plate (5×10^4 cells/well). The next day after the cells were adhered to the wall, the cells were cultured in a serum free DMEM culture medium at an atmosphere of 5% CO2 in an incubator at 37° C. for 12 h. The compound II was added into the 1% FBS-DMEM culture medium, and the cells were cultured in the culture medium for 2 h. The cells were then washed with PBS. 100 ng/mL LPS was added to react with the cells, and then the cells were washed with PBS. Culture medium including 10 μM fluorescent probe (DCFH2-DA) was supplied and then the cells were cultured for 30 min at 37° C. The cells were washed with PBS for three times so as to remove the residual stain. Finally the cells were lysed using 0.25% Tritox-100. The absorbance was measured by a fluorescence spectrometer, where the excitation wavelength was set as 485±20 nm, and the […] was set as 530±25 nm.

[7] = test system: Her-2/neu, p-Tyrosine, PI3K and Akt in breast tumor cells MDA-MB-453; experiment: western blotting of Her-2/neu-related proteins; assay type: cell-based, human
Method: The steps of western blotting include: washing cells with PBS twice at 4° C.; adding a lysis buffer and rubbing the cells by a rubbr policeman so as to lyse cells; putting the lysed cell solution into a 1.5 ml microcentrifuge tube and shaking for 1 min; centrifuging at 12000 rpm for 10 min and taking the supernatant; measuring concentration of the protein through a Bio-Rad protein assay kit; and storing the remained extracted protein solution at −70° C.; taking 100 μg protein solution and adding a SDS/protein loading buffer having the same volume, where the SDS/protein loading buffer has a concentration two times larger than the protein solution; boiling the mixture of the protein solution and the SDS/protein loading buffer at 100° C. for 10 min; cooling and loading the protein samples in each hole of gel; adjusting the voltage to 100 V and running the protein samples on the gel until the tracking dye in the sample buffer reaches the bottom of the gel; and subsequently transferring the protein from the gel using electrophoresis. A PVDF membrane was soaked in methanol until the paper was totally wet. The paper was arranged in a transfer tank placed in a 4° C. ice box, and the protein transfer was performed at a current of […] for 4 h. The PVDF membrane was then taken out, placed in a PBS blocking solution including 1% BSA and shaken for 2 h. Then the PVDF membrane was placed in a blocking solution including a primary antibody and slowly shaken at 100 rpm for 1 h at the room temperature. […] Then luminescence image equipment was used, where the PVDF was placed onto a black metal plate by a plastic pincer and the face including protein was upwards, a 1:1 mixed Chemiluminesent Substrate was added into the membrane and the exposure time depends on the fluorescence intensity of antibodies. […] FIG. 22 illustrates expression results of Her-2/neu-related proteins used for facilitating survival of tumor cells when compounds of formula (I) in different doses were added, which were detected by the western blotting. […]

## COC1=C(OC)C(=O)C(C)=C(C)C1=O [compound II]
[1]; 40 μM with 2.5 mM antioxidant NAC
  cell viability: recovered
[1]; 40 μM, compound only
  cell viability: half of that in the control group
[1]; Homo sapiens, viability, MDA-MB-453 cell strain, Table 1
  IC50: 36.7 µM
[1]; MDA-MB-453, with increasing concentration, FIG. 21
  viability of breast tumor cells: inhibited significantly
[2]
  IC50: 15.1 µM
[3]
  IC50: 23.6 µM
[4]
  IC50: 20.6 µM
[5]
  colony formation of breast tumor cells: significantly inhibit colony formation
[6]; MDA-MB-231, with antioxidant NAC added at the same time
  increasing trend of reactive oxygen species: not obvious
[6]; MDA-MB-231, with increasing treatment doses
  content of reactive oxygen species: increased accordingly
[7]; 40 μM
  expression of Her-2/neu and p-Tyrosine: totally inhibited
[7]; 10-60 μM, with increasing concentration
  expression amount of p-Tyrosine activated by Her-2/neu: significantly decreased
[7]; high concentration
  protein expression of PI3K and Akt: inhibited
